In PMC3252880, “Synthesis of 2-amino-3-arylpropan-1-ols and 1-(2,3-diaminopropyl)-1,2,3-triazoles and evaluation of their antimalarial activity” (Beilstein Journal of Organic Chemistry, 2011):
“And” between values parts separate entries of the source, which are not always exact repeats. Equal entries are not always repeated. Where two headings read alike, the source gives them in different places. Each block holds one compound with its values, some of them ahead of it.

Legend:
[1] = tested on: chloroquine-sensitive (CQS) strain of P. falciparum (D10); test: in vitro antiplasmodial activity, chloroquine-sensitive strain D10; type: cell-based, Plasmodium falciparum; details: for antiplasmodial activity (in words): in vitro, P. falciparum
Procedure: All samples were tested in triplicate on one occasion against a chloroquine-sensitive (CQS) strain of P. falciparum (D10). […] The antiplasmodial and cytotoxicity assays were performed as described previously.

[2] = tested on: chloroquine-resistant (CQR) strain of P. falciparum (Dd2); test: in vitro antiplasmodial activity, chloroquine-resistant strain Dd2; type: cell-based, Plasmodium falciparum; details: for RI (Resistance Index) = IC50 Dd2/IC50 D10: ratio Dd2/D10
[3] = tested on: Chinese hamster ovary (CHO) cell-line; test: in vitro cytotoxicity against CHO cell-line; type: cell-based; details: for IC50: read-out: CHO: IC50; for SI (Selectivity Index) = IC50 CHO/IC50 D10: ratio CHO/D10
Procedure: At first, compounds 6a–c, 8a–e, 9a–d, 12a,b, 14a–e, 15a–f and 16a–g were screened for in vitro antiplasmodial activity. All samples were tested in triplicate on one occasion against a chloroquine-sensitive (CQS) strain of P. falciparum (D10). Those samples showing antiplasmodial activity were then tested in triplicate on one occasion against a chloroquine-resistant (CQR) strain of P. falciparum (Dd2) and screened for in vitro cytotoxicity against a Chinese hamster ovary (CHO) cell-line, in triplicate on one occasion. The antiplasmodial and cytotoxicity assays were performed as described previously.

P. falciparum = tested on: P. falciparum; design: method as in PMID 17194200, PMID 14500986; details: cited from earlier work
P. berghei = tested on: P. berghei; design: method as in PMID 17194200, PMID 14500986; details: in vivo; cited from earlier work
[4] = CQS strain D10, tested in triplicate on one occasion, hydrophobic samples added as suspension, read-out: D10: IC50
[5] = Plasmodium falciparum, D10, CQS strain D10, tested in triplicate on one occasion, hydrophobic samples added as suspension, read-out: D10: IC50
[6] = Plasmodium falciparum, CQR strain Dd2, tested in triplicate on one occasion, read-out: Dd2: IC50
[7] = Cricetulus griseus, CHO cell-line, in triplicate on one occasion
[8] = CQR strain Dd2, tested in triplicate on one occasion, read-out: Dd2: IC50
[9] = CHO cell-line, in triplicate on one occasion
[10] = Plasmodium falciparum, DD2, read-out: Dd2: IC50
[11] = Plasmodium falciparum, D10, read-out: D10: IC50, CQS strain D10, tested in triplicate on one occasion, hydrophobic samples added as suspension
[12] = read-out: D10: IC50, CQS strain D10, tested in triplicate on one occasion, hydrophobic samples added as suspension

Structure (SMILES): COc1ccc(CC(CO)NCC(C)C)cc1 (centres unmarked) [Compound 6b]
IC50 [1, 4]: 282 µM

IC50 [1, 4]: 144 µM
Structure (SMILES): COC(c1ccccc1)C(CO)NCc1ccccc1 (racemic) [Compound 8b]

Structure (SMILES): CCN(CC)CC(Cn1cc(-c2ccccc2)nn1)NCc1ccccc1 (centres unmarked) [Compound 16a, 3-Diethylamino-2-(phenylmethyl)amino-1-(4-phenyl-1,2,3-triazol-1-yl)propane]
IC50 [1, 4]: 22.1 µM
IC50 [1, 5]: ≤ 25 µM
IC50 [2, 6]: 231 µM
RI (Resistance Index) = IC50 Dd2/IC50 D10 [2]: 10.5
IC50 [3, 7]: > 530 µM

Structure (SMILES): OCC(NCc1ccccc1)C(O)c1ccccc1Cl (racemic) [Compound 9b]
IC50 [1, 4]: ≤ 25 µM and 21.2 µM
IC50 [2, 8]: 13.6 µM
RI (Resistance Index) = IC50 Dd2/IC50 D10 [2]: 0.6
IC50 [3, 9]: > 530 µM

Structure (SMILES): CCN(CC)CCCC(C)Nc1ccnc2cc(Cl)ccc12 (centres unmarked) [CQ, reference compound]
IC50 ([1]; Plasmodium falciparum, D10, read-out: D10: IC50, CQS strain D10, n = 6 data sets averaged): 0.0191 µg/mL
IC50 [2, 10]: 0.0756 µg/mL
RI (Resistance Index) = IC50 Dd2/IC50 D10 [2]: 3.9

Structure (SMILES): [N-]=[N+]=NCC1CN1Cc1ccccc1Cl (centres unmarked) [Compound 14d]
IC50 [1, 4]: 93.7 µM

Structure (SMILES): [N-]=[N+]=NCC1CN1Cc1ccccc1 (centres unmarked) [Compound 14a, 2-Azidomethyl-1-(phenylmethyl)aziridine]
IC50 [1, 11]: 230 µM
IC50 [2, 10]: 467 µM
RI (Resistance Index) = IC50 Dd2/IC50 D10 [2]: 2
IC50 ([3]; Cricetulus griseus, CHO): > 530 µM

IC50 [1, 4]: 69.6 µM
Structure (SMILES): CN(C)CC(Cn1cc(-c2ccccc2)nn1)NCc1ccccc1 (centres unmarked) [Compound 16g]

Structure (SMILES): [N-]=[N+]=NCC1CN1Cc1cccc(Cl)c1 (centres unmarked) [Compound 14e]
IC50 [1, 4]: 180 µM

Structure (SMILES): Cc1ccc(-c2cn(CC3CN3Cc3ccccc3)nn2)cc1 (centres unmarked) [Compound 15d]
IC50 [1, 11]: ≤ 25 µM
antiplasmodial activity (in words) [1]: weak antiplasmodial activity
IC50 [1, 12]: 20.4 µM
IC50 [2, 10]: 21 µM
RI (Resistance Index) = IC50 Dd2/IC50 D10 [2]: 1
IC50 ([3]; Cricetulus griseus, CHO): > 530 µM

Structure (SMILES): CCCNC(CO)C(OC)c1ccccc1F (racemic) [Compound 8e]
IC50 [1, 4]: 38.5 µM
IC50 [2, 8]: 21.9 µM
RI (Resistance Index) = IC50 Dd2/IC50 D10 [2]: 0.6
IC50 [3, 9]: > 530 µM

Structure (SMILES): OCC(Cc1ccc(Cl)cc1)NCc1ccccc1 (centres unmarked) [Compound 6a]
IC50 [1, 4]: ≤ 25 µM and 12.6 µM
IC50 [2, 8]: 10.9 µM
RI (Resistance Index) = IC50 Dd2/IC50 D10 [2]: 0.9
IC50 [3, 9]: 138 µM
SI (Selectivity Index) = IC50 CHO/IC50 D10 [3]: 11

IC50 [1, 5]: 171 µM
Structure (SMILES): CCN(CC)CC(Cn1cc(-c2ccc(OC)cc2)nn1)NCc1ccccc1 (centres unmarked) [Compound 16e]

Structure (SMILES): COc1ccc(CN2CC2CN=[N+]=[N-])cc1 (centres unmarked) [Compound 14c]
IC50 [1, 4]: 160 µM

Structure (SMILES): CCN(CC)CC(Cn1cc(-c2ccccc2)nn1)NCc1ccc(Cl)cc1 (centres unmarked) [Compound 16b]
IC50 [1, 4]: ≤ 25 µM and 25.9 µM
IC50 [2, 8]: 176 µM
RI (Resistance Index) = IC50 Dd2/IC50 D10 [2]: 6.8
IC50 [3, 9]: > 530 µM

Structure (SMILES): COc1ccc(CN2CC2Cn2cc(-c3ccccc3)nn2)cc1 (centres unmarked) [Compound 15c]
IC50 [1, 11]: ≤ 25 µM
antiplasmodial activity (in words) [1]: weak antiplasmodial activity
IC50 [1, 12]: 25.7 µM
IC50 [2, 10]: 55.6 µM
RI (Resistance Index) = IC50 Dd2/IC50 D10 [2]: 2.2
IC50 ([3]; Cricetulus griseus, CHO): > 530 µM

IC50 [1, 4]: 140 µM
Structure (SMILES): CCN(CC)CC(Cn1cc(-c2ccccc2)nn1)NCc1ccc(OC)cc1 (centres unmarked) [Compound 16c]

Structure (SMILES): CC[C@H]1CN2CCc3cc(OC)c(OC)cc3[C@@H]2C[C@@H]1C[C@H]1NCCc2cc(OC)c(OC)cc21 [Emetine, reference compound]
IC50 [3, 7]: 0.27 µM

Structure (SMILES): c1ccc(CN2CC2Cn2cc(-c3ccccc3)nn2)cc1 (centres unmarked) [Compound 15a, 1-Phenylmethyl-2-[(4-phenyl-1,2,3-triazol-1-yl)methyl]aziridine]
IC50 [1, 11]: 34.4 µM
IC50 [2, 10]: 107 µM
RI (Resistance Index) = IC50 Dd2/IC50 D10 [2]: 3.1
IC50 ([3]; Cricetulus griseus, CHO): > 530 µM

IC50 [1, 4]: 130 µM
Structure (SMILES): Cc1ccc(C(O)C(CO)NCc2ccccc2)cc1 (racemic) [Compound 9c]

IC50 [1, 4]: 199 µM
Structure (SMILES): COC(c1ccc(Cl)cc1)C(CO)NCc1ccccc1 (racemic) [Compound 8c]

Structure (SMILES): CCCNC(CO)Cc1ccccc1F (centres unmarked) [Compound 6c]
IC50 [1, 4]: 217 µM

Structure (SMILES): Clc1ccc(CN2CC2Cn2cc(-c3ccccc3)nn2)cc1 (centres unmarked) [Compound 15b]
IC50 [1, 4]: 41.3 µM

Structure (SMILES): CC(C)NCC(O)COc1cccc2ccccc12 (centres unmarked) [propranolol]
infection of erythrocytes by P. falciparum (P. falciparum): inhibit infection of erythrocytes
parasitaemia of P. berghei infections (P. berghei): reduce the parasitaemia

IC50 [1, 4]: 32.5 µM
Structure (SMILES): CCN(CC)CC(Cn1cc(-c2ccc(C)cc2)nn1)NCc1ccccc1 (centres unmarked) [Compound 16d]

IC50 [1, 4]: 370 µM
Structure (SMILES): COC(c1ccccc1)C(CO)NC(C)C (racemic) [Compound 8a]

Structure (SMILES): CN(C)CC(Cn1cc(-c2ccccc2)nn1)NCc1ccccc1Cl (centres unmarked) [Compound 16f]
IC50 [2, 6]: 13 µM
RI (Resistance Index) = IC50 Dd2/IC50 D10 [2]: 1.2
IC50 [3, 7]: 182 µM
SI (Selectivity Index) = IC50 CHO/IC50 D10 [3]: 16.1

Structure (SMILES): COc1ccc(-c2cn(CC3CN3Cc3ccccc3)nn2)cc1 (centres unmarked) [Compound 15e]
IC50 [1, 11]: 40.5 µM

IC50 [1, 5]: 60.5 µM
Structure (SMILES): CC(C)(C)N[C@H](CO)[C@H](O)c1ccccc1F [Compound 12b]

Structure (SMILES): OCC(NCc1ccccc1)C(O)c1ccc(Cl)cc1 (stereo not drawn) [Compound 9a, anti-2-(N-Benzylamino)-1-(4-chlorophenyl)propan-1,3-diol]
IC50 [1, 4]: ≤ 25 µM and 25.2 µM
IC50 [2, 8]: 8.47 µM
RI (Resistance Index) = IC50 Dd2/IC50 D10 [2]: 0.3
IC50 [3, 9]: > 530 µM

IC50 [1, 4]: 80.7 µM
Structure (SMILES): OCC(NCc1ccc(Cl)cc1)C(O)c1ccccc1 (racemic) [Compound 9d]

IC50 [1, 5]: 98.7 µM
melting point: 112.8 °C
Structure (SMILES): COc1ccccc1[C@@H](O)[C@@H](CO)NC(C)(C)C [Compound 12a, syn-2-(N-tert-Butylamino)-1-(2-methoxyphenyl)propan-1,3-diol]

Structure (SMILES): COc1ccc(C(OC)C(CO)NCC(C)C)cc1 (racemic) [Compound 8d]
IC50 [1, 4]: 38.6 µM
IC50 [2, 8]: 25.7 µM
RI (Resistance Index) = IC50 Dd2/IC50 D10 [2]: 0.7
IC50 [3, 9]: > 530 µM

Structure (SMILES): [N-]=[N+]=NCC1CN1Cc1ccc(Cl)cc1 (centres unmarked) [Compound 14b]
IC50 [1, 4]: 101 µM
